Experimental data taken from US20160051560A1, “TREATMENTS INVOLVING ESLICARBAZEPINE OR ESLICARBAZEPINE ACETATE” (BIAL - PORTELA & Cª, S.A., priority 2013, published 2016).

System: patients with acute manic (including mixed) episode, bipolar I disorder
Assay: Study BIA-2093-204: 3-week double-blind, randomised, placebo-controlled, fixed multiple dose study in acute mania
Format: in vivo, human
Settings: for YMRS score absolute change from V2 (1 Day) to V7 (21 Days), Mean ± SD / YMRS score absolute change from V2 (1 Day) to V7 (21 Days), Median (range): ITT
Protocol: Two 3-week multicentre, double-blind, randomised, placebo-controlled studies in acute mania (study BIA-2093-203: dose titrated by response, eslicarbazepine acetate (ESL) 600-1800 mg or 800-2400 mg, once-daily; study BIA-2093-204: fixed doses of 600, 1200 and 1800 mg, once-daily) were followed by a recurrence prevention study consisting of a 2-week open-label period (900 mg, once-daily) continued by a double-blind, parallel-group, fixed dose (300, 900 and 1800 mg, once-daily) period for a minimum of 6 months. The primary endpoint was change in Young Mania Rating Scale (YMRS) in studies BIA-2093-203 and BIA-2093-204, and the proportion of no worsening patients in the Clinical Global Impressions-Bipolar Version (CGI-BP) in study BIA-2093-205.
Study BIA-2093-204 (EudraCT No 2005-002133-13) followed a multicentre, double-blind, randomised, parallel-group, placebo-controlled, fixed multiple dose design. This study was conducted at 25 study centres in Europe, South Africa and South America. Patients were randomised (1:1:1:1) to one of the following treatment groups: (1) ESL 1800 mg QD, (2) ESL 1200 mg QD, (3) ESL 600 mg QD, and (4) Placebo QD. The visit schedule in study BIA-2093-204 was similar to that of study BIA-2093-203. […] Patients also had the option of entering Study BIA-2093-205.
Studies BIA-2093-203 and BIA-2093-204 enrolled patients with ages ≧18 years, currently displaying an acute manic (including mixed) episode and with a documented diagnosis of bipolar I disorder according to the DSM-IV criteria (2). Eligible patients should have a Young Mania Rating Scale (YMRS) total score ≧20, with symptoms of the current manic episode starting within two weeks prior to randomization. Patients were excluded if they had history of schizophrenia or schizoaffective disorder, psychotic features or rapid cycling. Patients were also excluded if they were treated with carbamazepine, oxcarbazepine or a depot-neuroleptic. Previous treatment with ESL or history of unresponsiveness, intolerance or hypersensitivity to other dibenzazepine compounds (carbamazepine, oxcarbazepine or licarbazepine) also constituted criteria for exclusion. Patients with clinical relevant risk of harm to self or others and history of substance abuse were also excluded. Women were excluded if they were pregnant or breast-feeding, or if of childbearing potential they were unable to use double-barrier contraception.
The following validated instruments were used: YMRS (20), the Clinical Global Impressions-Bipolar Version (CGI-BP) scale (21) and the Montgomery-Åsberg Depression Rating Scale (MADRS) (22). The YMRS score is the sum of 11 scoring items, ranging from 0 to 60 points; higher scores indicate higher mania symptomatology (20). The CGI-BP scale measures severity and treatment-related improvement in mania, depression and overall illness categories. It comprises 3 scales: severity of illness (1—normal to 7—very severely ill, in which 3—mildly ill was used as cut-off value for statistical analysis), change from preceding phase and worst phase (1—very much improved to 7—very much worse, and 8—not applicable) (21). The MADRS score is calculated as the sum of the 10 scoring items, ranging from 0 to 60 points: higher scores indicate higher depression symptomatology (22).
The primary efficacy endpoint for acute mania studies (BIA-2093-203 and BIA-2093-204) was the change in YMRS total score from baseline until the end of the 3-week treatment period. Investigators administered the YMRS at each visit. Secondary efficacy variables based on the YMRS score included responder rate (proportion of patients with ≧50% improvement or <12 points in the YMRS score), change in YMRS total score for each visit, proportion of patients in full remission (YMRS score <12), and time to full remission. The investigators completed CGI-BP in all visits and the test scores in the different categories were considered as secondary endpoints. […]

[1] = ESL 1200 mg, n = 9, only study 204
[2] = ESL 1800 mg, n = 10, only study 204

Question: Which “YMRS score absolute change from V2 (1 Day) to V7 (21 Days), Mean ± SD” value (“YMRS score absolute change from V2 … Mean ± SD” below) (ESL 600 mg QD, n = 8) does the source give for `CC(=O)O[C@H]1Cc2ccccc2N(C(N)=O)c2ccccc21` [ESL, (S)-10-acetoxy-10,11-dihydro-5H-dibenz[b,f]azepine-5-carboxamide] here?
Answer: −16.9 ± 2.8

Question: What about the “YMRS score absolute change from V2 (1 Day) to V7 (21 Days), Median (range)” value (“YMRS score absolute change from V2 … (range)” below) (ESL 600 mg QD, n = 8) of the same molecule?
Answer: −17.5 (−20.0, −12.0)

Question: And the “YMRS score absolute change from V2 … Mean ± SD” value (ESL 1200 mg QD, n = 9)?
Answer: −16.7 ± 9.1

Question: What about the “YMRS score absolute change from V2 … (range)” value (ESL 1200 mg QD, n = 9) of the same molecule?
Answer: −15.0 (−35.0, −4.0)

Question: What about the “Any Adverse Events” value [1] of the same molecule?
Answer: 9 (100.0) Number (%) of patients

Question: And the Diarrhoea [1]?
Answer: 0 (0.0) Number (%) of patients

Question: And the Dizziness [1]?
Answer: 2 (22.2) Number (%) of patients

Question: What about the Headache [1] of the same molecule?
Answer: 5 (55.6) Number (%) of patients

Question: What about the Nausea [1] of the same molecule?
Answer: 1 (11.1) Number (%) of patients

Question: And the Paraesthesia oral [1]?
Answer: 1 (11.1) Number (%) of patients

Question: And the Somnolence [1]?
Answer: 1 (11.1) Number (%) of patients

Question: What about the Vomiting [1] of the same molecule?
Answer: 2 (22.2) Number (%) of patients

Question: What about the “YMRS score absolute change from V2 … Mean ± SD” value (ESL 1800 mg QD, n = 9) of the same molecule?
Answer: −11.3 ± 10.9

Question: And the “YMRS score absolute change from V2 … (range)” value (ESL 1800 mg QD, n = 9)?
Answer: −15.0 (−26.0, 7.0)

Question: And the “mean change in YMRS total scores from screening to V7” value (ESL 1800 mg group)?
Answer: −11.3

Question: What about the “patients in full remission at the end of the 3-week treatment period” value (ESL 1800 mg group) of the same molecule?
Answer: 33.3%

Question: And the “Any Adverse Events” value [2]?
Answer: 10 (100.0) Number (%) of patients

Question: What about the Diarrhoea [2] of the same molecule?
Answer: 0 (0.0) Number (%) of patients

Question: What about the Dizziness [2] of the same molecule?
Answer: 4 (40.0) Number (%) of patients

Question: What about the Headache [2] of the same molecule?
Answer: 1 (10.0) Number (%) of patients

Question: What about the Nausea [2] of the same molecule?
Answer: 3 (30.0) Number (%) of patients

Question: What about the Paraesthesia oral [2] of the same molecule?
Answer: 2 (20.0) Number (%) of patients

Question: What about the Somnolence [2] of the same molecule?
Answer: 3 (30.0) Number (%) of patients

Question: And the Vomiting [2]?
Answer: 2 (20.0) Number (%) of patients
